Test results reported in patent US11957716B2 (Immatics Biotechnologies GmbH, priority 2021, dated 2024).

What was measured:
HLA-A*03:01 = HLA-A*03:01 (Homo sapiens, UniProt P04439); assay: MHC binding assay, UV-ligand exchange ELISA; settings: peptide exchange yield, binding to HLA-A*03:01
Excerpt: Candidate peptides for T cell based therapies according to the present invention were further tested for their MHC binding capacity (affinity). The individual peptide-MHC complexes were produced by UV-ligand exchange, where a UV-sensitive peptide is cleaved upon UV-irradiation and exchanged with the peptide of interest as analyzed. Only peptide candidates that can effectively bind and stabilize the peptide-receptive MHC molecules prevent dissociation of the MHC complexes. To determine the yield of the exchange reaction, an ELISA was performed based on the detection of the light chain (β2m) of stabilized MHC complexes. The assay was performed as generally described in Rodenko et al. (Rodenko et al., 2006).
96 well MAXISorp plates (NUNC) were coated over night with 2 μg/ml streptavidin in PBS at room temperature, washed 4× and blocked for 1 h at 37° C. in 2% BSA containing blocking buffer. Refolded HLA-A*02:01/MLA-001 monomers served as standards, covering the range of 15-500 ng/ml. Peptide-MHC monomers of the UV-exchange reaction were diluted 100-fold in blocking buffer. Samples were incubated for 1 h at 37° C., washed four times, incubated with 2 μg/ml HRP conjugated anti-82m for 1 h at 37° C., washed again and detected with TMB solution that is stopped with […]. Absorption was measured at 450 nm. Candidate peptides that show a high exchange yield (preferably higher than 50%, most preferred higher than 75%) are generally preferred for a generation and production of antibodies or fragments thereof, and/or T cell receptors or fragments thereof, as they show sufficient avidity to the MHC molecules and prevent dissociation of the MHC complexes.

[1] = test system: HLA-A*01:01, HLA-A*02:01, HLA-A*03:01, HLA-A*24:02, HLA-B*07:02, HLA-B*08:01 and HLA-B*44:02; assay: HLA alleles the peptides bind to (Table 7); assay type: binding, human; settings: allotype from the group HLA-A*01:01, HLA-A*02:01, HLA-A*03:01, HLA-A*24:02, HLA-B*07:02, HLA-B*08:01, HLA-B*44:02
Excerpt: However, due to similarities in binding pattern such as the relevant anchoring positions some peptides bind to more than one allele, such an overlap is most likely, but not limited to, HLA-A*01 binding peptides also binding to HLA-B*15, HLA-A*03 binding peptides also binding to HLA-A*11, HLA-B*07 binding peptides also binding to HLA-B*35 and HLA-B*51.

Row | Substance | Peptide exchange (HLA-A*03:01) | Binders (HLA alleles the peptides according to the invention bind to) [1]
1 | 1 (AILAPPAILK; listed as Homo sapiens) [compound 1] | ++++ (≥75% = ++++) | HLA-A*03:01
2 | 2 (GTVFVLLSK; listed as Homo sapiens) [compound 2] | ++ (≥20% = ++) | HLA-A*03:01
3 | 8 (VIYNQTLMK; listed as Homo sapiens) [compound 8] | ++++ (≥75% = ++++) | HLA-A*03:01
4 | 17 (MVNWSLTNK; listed as Homo sapiens) [compound 17] | ++++ (≥75% = ++++) | HLA-A*03:01
5 | 19 (RILEVVRQPK; listed as Homo sapiens) [compound 19] | ++++ (≥75% = ++++) | HLA-A*03:01
6 | 20 (ILAPPAILK; listed as Homo sapiens) [compound 20] | ++++ (≥75% = ++++) | HLA-A*03:01
7 | 21 (MLSAQFILK; listed as Homo sapiens) [compound 21] | ++++ (≥75% = ++++) | HLA-A*03:01
8 | 22 (RVIEVVMNSK; listed as Homo sapiens) [compound 22] | ++++ (≥75% = ++++) | HLA-A*03:01
9 | 24 (LIYIPTNSIYK; listed as Homo sapiens) [compound 24] | ++++ (≥75% = ++++) | HLA-A*03:01
10 | 25 (GVCSTLTIK; listed as Homo sapiens) [compound 25] | ++++ (≥75% = ++++) | HLA-A*03:01
11 | 28 (ATLQAVTLYKK; listed as Homo sapiens) [compound 28] | ++++ (≥75% = ++++) | HLA-A*03:01
12 | 29 (GTFIAPVMK; listed as Homo sapiens) [compound 29] | ++++ (≥75% = ++++) | HLA-A*03:01
13 | 34 (LLFKGLMWK; listed as Homo sapiens) [compound 34] | ++++ (≥75% = ++++) | HLA-A*03:01
14 | 35 (SLATAISAK; listed as Homo sapiens) [compound 35] | +++ (≥50% = +++) | HLA-A*03:01
15 | 37 (RLYSGSSFLY; listed as Homo sapiens) [compound 37] | ++++ (≥75% = ++++) | HLA-A*03:01
16 | 38 (AVVSHFILY; listed as Homo sapiens) [compound 38] | +++ (≥50% = +++) | HLA-A*03:01
17 | 44 (SLFPYFLNK; listed as Homo sapiens) [compound 44] | ++++ (≥75% = ++++) | HLA-A*03:01
18 | 50 (KTIDLVIVR; listed as Homo sapiens) [compound 50] | ++++ (≥75% = ++++) | HLA-A*03:01
19 | 51 (SVFSLVHLFDK; listed as Homo sapiens) [compound 51] | ++++ (≥75% = ++++) | HLA-A*03:01
20 | 53 (TTLENLPQK; listed as Homo sapiens) [compound 53] | +++ (≥50% = +++) | HLA-A*03:01
21 | 61 (GLIAFAIFK; listed as Homo sapiens) [compound 61] | – | HLA-A*03:01
22 | 70 (LIAGLIFLK; listed as Homo sapiens) [compound 70] | +++ (≥50% = +++) | HLA-A*03:01
23 | 72 (GSCSFALSR; listed as Homo sapiens) [compound 72] | ++++ (≥75% = ++++) | HLA-A*03:01
24 | 75 (TTAAVYILK; listed as Homo sapiens) [compound 75] | +++ (≥50% = +++) | HLA-A*03:01

Row | Substance | Peptide exchange (HLA-A*03:01) | Binders (HLA alleles the peptides according to the invention bind to) [1]
25 | 79 (SLFRLSISF; listed as Homo sapiens) [compound 79] | – | HLA-A*24:02
26 | 81 (KLIAGLIFLK; listed as Homo sapiens) [compound 81] | +++ (≥50% = +++) | HLA-A*03:01
27 | 88 (KVGAVVHLK; listed as Homo sapiens) [compound 88] | +++ (≥50% = +++) | HLA-A*03:01
28 | 90 (LALLGAPPPK; listed as Homo sapiens) [compound 90] | ++ (≥20% = ++) | HLA-A*03:01
29 | 91 (RIVTYIVAK; listed as Homo sapiens) [compound 91] | +++ (≥50% = +++) | HLA-A*03:01
30 | 94 (AVFLGNPSNQK; listed as Homo sapiens) [compound 94] | ++++ (≥75% = ++++) | HLA-A*03:01
31 | 101 (ATNSFLLIK; listed as Homo sapiens) [compound 101] | ++++ (≥75% = ++++) | HLA-A*03:01
32 | 104 (GSLQTLPPK; listed as Homo sapiens) [compound 104] | +++ (≥50% = +++) | HLA-A*03:01
33 | 107 (SVISVLTTPK; listed as Homo sapiens) [compound 107] | ++++ (≥75% = ++++) | HLA-A*03:01
34 | 112 (ETYGTFVLR; listed as Homo sapiens) [compound 112] | +++ (≥50% = +++) | HLA-A*03:01
35 | 119 (VLHGLLFTL; listed as Homo sapiens) [compound 119] | – | HLA-A*02:01
36 | 125 (ALAQGANLK; listed as Homo sapiens) [compound 125] | +++ (≥50% = +++) | HLA-A*03:01
37 | 127 (TVATQVATSK; listed as Homo sapiens) [compound 127] | +++ (≥50% = +++) | HLA-A*03:01
38 | 128 (MTFVPLLAR; listed as Homo sapiens) [compound 128] | ++++ (≥75% = ++++) | HLA-A*03:01
39 | 138 (RTLPLEGSPK; listed as Homo sapiens) [compound 138] | +++ (≥50% = +++) | HLA-A*03:01
40 | 143 (AVLGALLRH; listed as Homo sapiens) [compound 143] | ++++ (≥75% = ++++) | HLA-A*03:01
41 | 144 (IIVPSFYK; listed as Homo sapiens) [compound 144] | +++ (≥50% = +++) | HLA-A*03:01
42 | 146 (KVLVDFLLK; listed as Homo sapiens) [compound 146] | +++ (≥50% = +++) | HLA-A*03:01
43 | 148 (SVYMATTLK; listed as Homo sapiens) [compound 148] | ++++ (≥75% = ++++) | HLA-A*03:01
44 | 149 (SMNSKALRWK; listed as Homo sapiens) [compound 149] | +++ (≥50% = +++) | HLA-A*03:01
45 | 172 (LLYKTLIIL; listed as Homo sapiens) [compound 172] | – | HLA-A*02:01
46 | 176 (AFLLSLISL; listed as Homo sapiens) [compound 176] | – | HLA-A*24:02
47 | 197 (HHTQLVFVF; listed as Homo sapiens) [compound 197] | – | HLA-A*24:02
48 | 211 (VVTIVMHIYK; listed as Homo sapiens) [compound 211] | – | HLA-A*03:01
